From patent EP0535104B1, “HETEROCYCLIC COMPOUNDS AND THEIR PREPARATION AND USE” (NOVO NORDISK A/S, priority 1990, dated 1992) come the findings set out here.

In the assay the test system is benzodiazepine receptors. Briefly: in vivo displacement of radioactive labelled flunitrazepam from benzodiazepine receptors. The settings on record: dose which causes the specific binding of flunitrazepam to benzodiazepine receptors in a living brain to be reduced to 50% of the control value; test as described in US 4,774,245. An excerpt: The pharmaceutical properties of the compounds of the invention can be illustrated by determining their capability for displacing radioactive labelled flunitrazepam from benzodiazepine receptors.
The displacement activity of the compounds of the invention may be found by determining the ED50 value. The ED50 value represents the dose (mg/kg) of a test substance which causes the specific binding of flunitrazepam to benzodiazepine receptors in a living brain to be reduced to 50% of the control value.
Such an in vivo test is carried out as described in US 4,774,245.

Regarding `CN(C)c1nc2c(-c3noc(C4CC4)n3)ncn2c2ccccc12` [Compound 13, 3-(5-cyclopropyl-1,2,4-oxadiazol-3-yl)-5-dimethylamino-imidazo[1,5-a]quinazoline], the 50% effective dose (ED50) (commonly the dose that gives a 50% effect, or the effect in half of the subjects) stood at 1.5 mg/kg.

On to `c1ccc2c(c1)c(N1CCOCC1)nc1c(-c3noc(C4CC4)n3)ncn12` [Compound 14, 3-(5-cyclopropyl-1,2,4-oxadiazol-3-yl)-5-morpholino-imidazo[1,5-a]quinazoline], for which the median effective dose (ED50) is reported as 1.9 mg/kg.

As for `c1ccc2c(c1)c(N1CCOCC1)nc1c(-c3nc(C4CC4)no3)ncn12` [Compound 19, 3-(3-cyclopropyl-1,2,4-oxadiazol-5-yl)-5-morpholino-imidazo[1,5-a]quinazoline], the median effective dose (ED50) amounted to 1.6 mg/kg.

In the case of `CN(C)c1nc2ccccc2n2cnc(-c3noc(C4CC4)n3)c12.Cl` [Compound 4, 3-(5-cyclopropyl-1,2,4-oxadiazol-3-yl)-4-dimethylamino-imidazo[1,5-a]quinoxaline hydrochloride], the ED50 was 4.1 mg/kg.
